What was measured:
MCF7 cells = assay: Multiplexed cell number, β-gal and TUNEL in MCF7; assay type: cell-based, human; settings: 0.125 µM or 0.5 µM, 1-5 DT
Description: The viable cell number was determined by PI staining, the % of β-gal positive cells was determined using an antibody to β-gal, and the % of Tunel positive cells was determined by the incorporation of labelled dUTP. The data are plotted as the mean (+/- SD) of 2 experiments for CDK4 and CDK6 inhibitor treatment, and the mean of 6 experiments (+/- SD) for untreated samples. The duration of treatment is plotted along the x-axis in doubling times (DT) for MCF7 cells.
After treatment, cells were fixed, washed with PBS, permeabilized and β-gal was detected using anti-β-galactosidase antibody; for multiplexed assays, TUNEL staining was carried out using Roche TUNEL reagents as indicated above. Nuclei were also stained with PI for total cell counting. Plates were read in an Acumen Explorer Ex3 (TTP Labtech) and raw data were analyzed with Cellista software. Outputs were expressed as percentages of each identified subpopulation 1) positive β-gal, and 2) total cell number. The percentages of β-gal positive cells, TUNEL positive cells, and cell numbers were plotted in Microsoft Excel.

[1] = system: HR+ and HR- breast cancer cell lines; assay: Proliferation after washouts (EdU Click-iT) in breast cancer lines; assay type: cell-based, human; settings: HR+ versus HR- breast cancer cell lines; exposure 2 hr, 24 hr or 72 hrs followed by washout
Description: Images were SA-β-galactosidase immunocytochemical labeling taken by fluorescent microscopy using a Leica DMiL. […] SA-β-gal Cell samples were lysed after treatment with expression was determined using the Senescence Cells 100 μL lysis buffer and transferred to a 96-well plate. Histochemical Staining Kit (Sigma, CS0030) following 30 μL of each sample were transferred into deep well the vendor 's manual. Images were taken at 100x by bright plates using TECAN-EVO Workstation. Samples were field microscopy (Leica DMiL). treated for derivatization of the metabolites of interest and internal standards. For this, 50 μL of derivatization reagent Proliferation studies after washouts (EdU Click- and 80 μL of internal standard (IS, SupplementaryTable iT®) 1), were added with multidrop, plates were vortexed for 5 mins and let sit for one hour at 4 °C. The IS used were the Cells were plated onto poly-D-lysine D or 13C-labeled commercial analogues of nine of the ten coated 96-well plates at a density of 2,000-6,000 metabolites, prepared at 25 μM in water (Supplementary viable cells per well, and treated with abemaciblib or Table 1). The derivatization reagents (from Sigma), […] washout schedule shown on Supplementary Figure 1A. […] EdU Samples were analyzed by LC-MS/MS under the detection was performed using the Click-iT High Content conditions described below. […] Cell images were captured using a Cellomics Arrayscan VTI and analyzed Analysis of the derivatized-extracted samples with the Target Activation bio-application V.3 reading in 4 was carried out with an Agilent 6460 Triple Quadrupole channels at a magnification of 10X. […] The software relative levels and sub-cellular localization of EdU were for data collection and treatment was Agilent Masshunter determined through the respective intensities and locations Workstation. Mobile phases for chromatography were: of Alexa-488 fluorescence. mobile phase A: formic acid (5 mM) and ammonium formate (10 mM) in water; mobile phase B: acetonitrile. […]

Compound | TUNEL staining (MCF7 cells) | percentage of cells with β-gal staining compared with abemaciclib (MCF7 cells) | DNA synthesis / proliferation as measured by EdU incorporation [1]
CC(=O)c1c(C)c2cnc(Nc3ccc(N4CCNCC4)cn3)nc2n(C2CCCC2)c1=O [palbociclib] | only minor increases in TUNEL staining were observed and only after longer treatment times | lower | decrease in proliferation preferentially for HR+ cell lines; however, this effect was only observed after longer treatment times
CN(C)C(=O)c1cc2cnc(Nc3ccc(N4CCNCC4)cn3)nc2n1C1CCCC1 [ribociclib] | only minor increases in TUNEL staining were observed and only after longer treatment times | lower | 

Source: article PMC5642494 (Oncotarget, 2017)
